Assay results from ChEMBL document CHEMBL4831500, “Discovery of first-in-class imidazothiazole-based potent and selective ErbB4 (HER4) kinase inhibitors” (Eur J Med Chem, 2021).

Columns and labels:
[1] = tested on: MOLT-4; experiment: Antiproliferative activity against human MOLT-4 cells assessed as cell growth inhibition measured after 48 hrs by SRB assay; format: functional, cell-based; conditions: MOLT-4, 48 h
[2] = tested on: U-251; experiment: Antiproliferative activity against human U-251 cells assessed as cell growth inhibition measured after 48 hrs by SRB assay; format: functional, cell-based; conditions: U-251, 48 h
[3] = tested on: NCI-H522; experiment: Antiproliferative activity against human NCI-H522 cells assessed as cell growth inhibition at 10 uM measured after 48 hrs by SRB assay relative to control; format: functional
[4] = tested on: HCC 2998; experiment: Antiproliferative activity against human HCC 2998 cells assessed as cell growth inhibition at 10 uM measured after 48 hrs by SRB assay relative to control; format: functional
[5] = tested on: U-251; experiment: Antiproliferative activity against human U-251 cells assessed as cell growth inhibition at 10 uM measured after 48 hrs by SRB assay relative to control; format: functional
[6] = tested on: SK-MEL-5; experiment: Antiproliferative activity against human SK-MEL-5 cells assessed as cell growth inhibition at 10 uM measured after 48 hrs by SRB assay relative to control; format: functional
[7] = target: Receptor tyrosine-protein kinase erbB-2 (Homo sapiens) (UniProt P04626); experiment: Inhibition of ErbB2 (unknown origin) at 10 uM incubated for 40 mins in presence of Mg/ATP mix by [gamma p33]-ATP based scintillation counting method relative to control
[8] = target: T1, Receptor tyrosine-protein kinase erbB-4 (Homo sapiens, UniProt Q15303); experiment: Inhibition of ErbB4 (unknown origin) at 10 uM incubated for 40 mins in presence of Mg/ATP mix by [gamma p33]-ATP based scintillation counting method relative to control
[9] = target: Fibroblast growth factor receptor 1 (Homo sapiens) (UniProt P11362); experiment: Inhibition of FGFR1 (unknown origin) at 10 uM incubated for 40 mins in presence of Mg/ATP mix by [gamma p33]-ATP based scintillation counting method relative to control
[10] = target: RAF proto-oncogene serine/threonine-protein kinase (Homo sapiens, UniProt P04049); experiment: Inhibition of RAF1 (unknown origin) at 10 uM incubated for 40 mins in presence of Mg/ATP mix by [gamma p33]-ATP based scintillation counting method relative to control
[11] = target: Tyrosine-protein kinase JAK3 (Homo sapiens) (UniProt P52333); experiment: Inhibition of JAK3 (unknown origin) at 10 uM incubated for 40 mins in presence of Mg/ATP mix by [gamma p33]-ATP based scintillation counting method relative to control
[12] = target: Epidermal growth factor receptor (Homo sapiens, UniProt P00533); experiment: Inhibition of EGFR (unknown origin) incubated for 40 mins in presence of Mg/ATP mix by [gamma p33]-ATP based scintillation counting method
[13] = species: Homo sapiens; experiment: Selectivity ratio of IC50 for inhibition of EGFR (unknown origin) to IC50 for inhibition of ErbB4 (unknown origin); conditions: dose 10.0 µM, time 40.0 min
[14] = target: T1, Receptor tyrosine-protein kinase erbB-4; experiment: Inhibition of ErbB4 in human T47D cells assessed as suppression of neuregulin 1-induced autophosphorylation incubated for 90 mins by sandwich ELISA; format: cell-based
[15] = target: hERG (KCNH2) (Homo sapiens, UniProt Q12809); experiment: Safety index, ratio of test compound IC50 to E-4031 IC50 for inhibition of human ERG incubated for 3 hrs by competitive fluorescence tracer binding based assay; conditions: read-out: Ratio IC50
Sequence of hERG (KCNH2) (Q12809 whole entry): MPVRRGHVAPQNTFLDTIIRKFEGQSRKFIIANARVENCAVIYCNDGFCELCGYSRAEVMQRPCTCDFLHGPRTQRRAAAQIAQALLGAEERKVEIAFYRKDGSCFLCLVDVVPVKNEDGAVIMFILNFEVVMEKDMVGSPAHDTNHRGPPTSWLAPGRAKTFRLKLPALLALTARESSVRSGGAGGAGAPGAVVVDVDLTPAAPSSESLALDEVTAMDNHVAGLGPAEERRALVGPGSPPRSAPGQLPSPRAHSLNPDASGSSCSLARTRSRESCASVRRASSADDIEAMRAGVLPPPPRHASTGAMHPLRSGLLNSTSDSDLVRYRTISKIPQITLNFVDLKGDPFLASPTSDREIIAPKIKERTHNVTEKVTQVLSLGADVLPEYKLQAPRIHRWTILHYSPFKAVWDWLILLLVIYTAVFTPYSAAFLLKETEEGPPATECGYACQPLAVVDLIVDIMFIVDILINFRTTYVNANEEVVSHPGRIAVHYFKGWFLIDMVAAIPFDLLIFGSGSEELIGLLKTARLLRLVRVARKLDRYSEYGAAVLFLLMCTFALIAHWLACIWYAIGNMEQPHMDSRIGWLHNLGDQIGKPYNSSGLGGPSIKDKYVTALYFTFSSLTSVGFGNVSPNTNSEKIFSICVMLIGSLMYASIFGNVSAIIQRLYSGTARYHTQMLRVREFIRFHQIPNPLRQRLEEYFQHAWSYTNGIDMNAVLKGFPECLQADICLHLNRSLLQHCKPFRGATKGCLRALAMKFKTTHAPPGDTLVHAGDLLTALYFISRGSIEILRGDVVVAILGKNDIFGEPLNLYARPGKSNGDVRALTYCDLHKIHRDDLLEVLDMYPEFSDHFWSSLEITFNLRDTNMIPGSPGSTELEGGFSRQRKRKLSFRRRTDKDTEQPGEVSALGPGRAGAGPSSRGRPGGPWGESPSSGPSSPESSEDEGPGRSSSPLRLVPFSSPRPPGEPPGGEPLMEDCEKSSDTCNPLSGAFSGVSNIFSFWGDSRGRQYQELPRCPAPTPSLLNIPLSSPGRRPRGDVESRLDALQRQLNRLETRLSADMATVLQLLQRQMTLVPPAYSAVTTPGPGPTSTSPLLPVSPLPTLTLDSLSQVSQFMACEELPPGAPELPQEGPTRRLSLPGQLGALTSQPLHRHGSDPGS

T1 sequence (Q15303 whole entry): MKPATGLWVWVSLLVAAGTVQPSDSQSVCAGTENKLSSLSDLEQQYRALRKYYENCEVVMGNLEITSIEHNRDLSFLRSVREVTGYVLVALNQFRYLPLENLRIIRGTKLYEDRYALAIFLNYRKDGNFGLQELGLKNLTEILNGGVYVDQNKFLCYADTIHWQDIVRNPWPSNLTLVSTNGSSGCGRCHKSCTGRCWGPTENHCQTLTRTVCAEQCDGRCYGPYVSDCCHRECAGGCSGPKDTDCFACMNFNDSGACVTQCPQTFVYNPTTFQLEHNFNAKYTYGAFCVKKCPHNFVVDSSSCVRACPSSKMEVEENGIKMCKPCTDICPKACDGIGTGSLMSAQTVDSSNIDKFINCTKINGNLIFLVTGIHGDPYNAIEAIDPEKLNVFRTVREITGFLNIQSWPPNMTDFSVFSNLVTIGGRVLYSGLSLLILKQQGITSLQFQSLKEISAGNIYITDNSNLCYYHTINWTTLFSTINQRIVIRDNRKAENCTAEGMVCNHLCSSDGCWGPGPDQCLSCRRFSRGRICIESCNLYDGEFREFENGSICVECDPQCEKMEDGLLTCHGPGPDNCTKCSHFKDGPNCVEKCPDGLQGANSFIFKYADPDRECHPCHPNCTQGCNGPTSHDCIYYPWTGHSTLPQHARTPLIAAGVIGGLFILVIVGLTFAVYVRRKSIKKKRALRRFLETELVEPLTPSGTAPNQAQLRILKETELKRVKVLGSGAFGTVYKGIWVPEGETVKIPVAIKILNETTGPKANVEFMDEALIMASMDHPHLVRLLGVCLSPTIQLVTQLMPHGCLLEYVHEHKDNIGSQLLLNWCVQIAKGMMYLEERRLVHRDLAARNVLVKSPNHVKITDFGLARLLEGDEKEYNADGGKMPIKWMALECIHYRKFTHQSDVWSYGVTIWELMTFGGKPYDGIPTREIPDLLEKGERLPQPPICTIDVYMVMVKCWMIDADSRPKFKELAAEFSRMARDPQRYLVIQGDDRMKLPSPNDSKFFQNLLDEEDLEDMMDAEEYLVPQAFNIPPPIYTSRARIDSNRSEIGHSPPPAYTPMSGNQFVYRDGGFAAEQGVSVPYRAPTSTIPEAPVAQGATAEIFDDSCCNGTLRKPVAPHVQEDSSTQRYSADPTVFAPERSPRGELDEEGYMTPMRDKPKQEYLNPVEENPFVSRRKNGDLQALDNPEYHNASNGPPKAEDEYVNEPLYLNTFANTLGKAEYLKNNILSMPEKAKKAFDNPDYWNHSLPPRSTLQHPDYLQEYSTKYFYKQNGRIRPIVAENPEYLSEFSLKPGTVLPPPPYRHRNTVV
Sequence of Epidermal growth factor receptor (P00533 whole entry): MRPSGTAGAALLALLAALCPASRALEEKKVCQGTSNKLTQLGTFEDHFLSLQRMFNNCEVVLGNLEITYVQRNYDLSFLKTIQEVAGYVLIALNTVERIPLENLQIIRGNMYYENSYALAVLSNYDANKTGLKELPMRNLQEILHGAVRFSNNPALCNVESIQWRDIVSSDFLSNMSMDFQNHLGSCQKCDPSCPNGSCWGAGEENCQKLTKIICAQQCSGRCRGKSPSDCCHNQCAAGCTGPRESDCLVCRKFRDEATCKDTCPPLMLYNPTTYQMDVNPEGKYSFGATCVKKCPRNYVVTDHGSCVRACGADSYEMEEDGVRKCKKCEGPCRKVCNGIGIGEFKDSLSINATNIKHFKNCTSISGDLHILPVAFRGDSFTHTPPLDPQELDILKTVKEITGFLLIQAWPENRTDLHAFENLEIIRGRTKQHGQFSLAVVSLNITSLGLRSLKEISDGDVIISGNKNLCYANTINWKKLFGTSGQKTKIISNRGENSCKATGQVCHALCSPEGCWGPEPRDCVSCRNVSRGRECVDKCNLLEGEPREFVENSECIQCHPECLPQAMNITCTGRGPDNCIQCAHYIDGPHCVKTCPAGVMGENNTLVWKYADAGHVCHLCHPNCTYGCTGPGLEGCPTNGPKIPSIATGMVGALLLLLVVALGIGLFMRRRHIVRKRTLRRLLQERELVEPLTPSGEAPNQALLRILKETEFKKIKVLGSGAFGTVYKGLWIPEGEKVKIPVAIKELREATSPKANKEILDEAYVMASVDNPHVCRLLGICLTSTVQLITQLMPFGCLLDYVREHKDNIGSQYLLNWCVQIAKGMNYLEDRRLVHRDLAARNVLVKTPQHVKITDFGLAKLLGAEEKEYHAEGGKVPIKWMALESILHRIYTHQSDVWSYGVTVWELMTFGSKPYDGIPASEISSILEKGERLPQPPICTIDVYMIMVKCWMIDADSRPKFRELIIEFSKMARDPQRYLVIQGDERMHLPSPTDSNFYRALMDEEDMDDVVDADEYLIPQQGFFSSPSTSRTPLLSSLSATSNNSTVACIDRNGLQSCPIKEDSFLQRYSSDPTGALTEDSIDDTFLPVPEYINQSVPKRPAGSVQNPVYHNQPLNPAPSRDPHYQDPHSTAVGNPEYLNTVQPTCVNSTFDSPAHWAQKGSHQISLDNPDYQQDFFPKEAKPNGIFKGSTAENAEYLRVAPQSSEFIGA
Sequence of Receptor tyrosine-protein kinase erbB-2 (Homo sapiens) (P04626 whole entry): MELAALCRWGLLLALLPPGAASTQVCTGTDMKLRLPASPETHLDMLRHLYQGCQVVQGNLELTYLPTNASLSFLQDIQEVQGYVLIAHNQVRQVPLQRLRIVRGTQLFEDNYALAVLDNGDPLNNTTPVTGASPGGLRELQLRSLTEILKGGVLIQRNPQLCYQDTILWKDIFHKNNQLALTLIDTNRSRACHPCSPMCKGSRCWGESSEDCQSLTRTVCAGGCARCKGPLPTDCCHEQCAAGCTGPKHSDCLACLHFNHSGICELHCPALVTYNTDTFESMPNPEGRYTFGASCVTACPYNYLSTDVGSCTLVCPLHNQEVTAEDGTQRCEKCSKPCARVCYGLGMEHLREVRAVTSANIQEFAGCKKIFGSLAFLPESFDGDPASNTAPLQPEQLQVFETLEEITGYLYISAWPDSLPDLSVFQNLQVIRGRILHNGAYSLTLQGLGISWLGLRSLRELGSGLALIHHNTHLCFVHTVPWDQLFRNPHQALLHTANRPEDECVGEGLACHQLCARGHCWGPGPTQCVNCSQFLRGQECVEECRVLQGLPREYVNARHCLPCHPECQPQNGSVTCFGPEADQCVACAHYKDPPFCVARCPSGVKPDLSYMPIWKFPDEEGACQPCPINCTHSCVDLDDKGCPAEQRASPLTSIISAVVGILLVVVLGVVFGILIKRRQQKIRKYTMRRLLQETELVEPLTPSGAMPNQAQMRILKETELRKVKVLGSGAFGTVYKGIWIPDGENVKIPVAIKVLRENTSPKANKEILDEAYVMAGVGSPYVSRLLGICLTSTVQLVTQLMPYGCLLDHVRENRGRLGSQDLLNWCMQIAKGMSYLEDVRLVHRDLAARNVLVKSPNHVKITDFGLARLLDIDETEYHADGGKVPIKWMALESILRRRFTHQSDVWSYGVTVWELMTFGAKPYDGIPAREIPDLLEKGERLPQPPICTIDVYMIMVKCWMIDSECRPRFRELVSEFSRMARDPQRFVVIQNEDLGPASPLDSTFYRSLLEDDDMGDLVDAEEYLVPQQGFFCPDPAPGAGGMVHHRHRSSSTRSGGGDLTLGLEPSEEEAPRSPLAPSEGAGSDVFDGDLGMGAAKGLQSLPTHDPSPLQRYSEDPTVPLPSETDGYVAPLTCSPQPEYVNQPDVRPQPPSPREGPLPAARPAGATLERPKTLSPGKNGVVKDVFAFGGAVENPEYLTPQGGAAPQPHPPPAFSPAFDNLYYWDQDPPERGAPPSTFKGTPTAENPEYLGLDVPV

IC50 [1]: 1.02 µM | IC50 [2]: 6.08 µM | inhibition [7]: 2.75% | inhibition [8]: 96.1% | inhibition [9]: 3.33% | inhibition [10]: 23% | inhibition [11]: 77.5% | IC50 [12]: 9.92 µM | Ratio IC50 [13]: 651 | IC50 [14]: 0.0033 µM
Structure (SMILES): CS(=O)(=O)c1nccc(-c2c(-c3cccc(OCc4ccccc4)c3)nc3sccn23)n1
inhibition at 10 µM [3]: 94.1% | inhibition at 10 µM [4]: 67.6% | inhibition at 10 µM [5]: 10.9% | inhibition at 10 µM [6]: 99.9% | selectivity ratio at 3 h [15]: 513
